{"source": "paper PMC9382030", "about": "“A mechanism for exocyst-mediated tethering via Arf6 and PIP5K1C-driven phosphoinositide conversion” (Current biology : CB, 2022)", "assay_in_all_cases": "membrane-coated bead recruitment, confocal fluorescence, single-site fit", "assay_type_in_all_cases": "binding", "details_in_all_cases": "apparent affinity in protein concentration; 5 mol% PI(4,5)P2, 85% POPC, 10% phosphatidylserine on silica beads; room temperature, 30 min; 20 mM HEPES, 150 mM NaCl; read-out: KD,relative", "key": {"exocyst holocomplex": {"biological_target": "T1, exocyst holocomplex (Homo sapiens, UniProt Q9NV70+Q9UPT5)", "T1 construct": "gene EXOC1; Sf9 baculovirus; hetero-octamer; 6xHis-mNeonGreen-Exoc6 (tag kept), 6xHis-MBP on Exoc5 cut with HRV3C, other subunits untagged; with Exocyst complex component 2; Exocyst complex component 3; Exocyst complex component 4; Exocyst complex component 5; Exocyst complex component 6; Exocyst complex component 8"}, "[1]": {"biological_target": "T2, exocyst subcomplex-2 (Exoc5:6:7:8) (Homo sapiens, UniProt Q9UPT5)", "T2 construct": "gene EXOC7; Sf9 baculovirus; heterotetramer; with Exocyst complex component 5; Exocyst complex component 6; Exocyst complex component 8"}, "[2]": {"biological_target": "T3, exocyst subcomplex-1 (Exoc1:2:3:4) (Homo sapiens, UniProt Q9NV70)", "T3 construct": "Sf9 baculovirus; heterotetramer; 6xHis-mNeonGreen-Exoc4 (tag kept), 6xHis-MBP on Exoc1 cut with HRV3C, Exoc2 and Exoc3 untagged; PH domain of Exoc1 is the known PI(4,5)P2 site; with Exocyst complex component 2; Exocyst complex component 3; Exocyst complex component 4", "T3 sequence (Q9NV70 whole entry, the tested form may be a part)": "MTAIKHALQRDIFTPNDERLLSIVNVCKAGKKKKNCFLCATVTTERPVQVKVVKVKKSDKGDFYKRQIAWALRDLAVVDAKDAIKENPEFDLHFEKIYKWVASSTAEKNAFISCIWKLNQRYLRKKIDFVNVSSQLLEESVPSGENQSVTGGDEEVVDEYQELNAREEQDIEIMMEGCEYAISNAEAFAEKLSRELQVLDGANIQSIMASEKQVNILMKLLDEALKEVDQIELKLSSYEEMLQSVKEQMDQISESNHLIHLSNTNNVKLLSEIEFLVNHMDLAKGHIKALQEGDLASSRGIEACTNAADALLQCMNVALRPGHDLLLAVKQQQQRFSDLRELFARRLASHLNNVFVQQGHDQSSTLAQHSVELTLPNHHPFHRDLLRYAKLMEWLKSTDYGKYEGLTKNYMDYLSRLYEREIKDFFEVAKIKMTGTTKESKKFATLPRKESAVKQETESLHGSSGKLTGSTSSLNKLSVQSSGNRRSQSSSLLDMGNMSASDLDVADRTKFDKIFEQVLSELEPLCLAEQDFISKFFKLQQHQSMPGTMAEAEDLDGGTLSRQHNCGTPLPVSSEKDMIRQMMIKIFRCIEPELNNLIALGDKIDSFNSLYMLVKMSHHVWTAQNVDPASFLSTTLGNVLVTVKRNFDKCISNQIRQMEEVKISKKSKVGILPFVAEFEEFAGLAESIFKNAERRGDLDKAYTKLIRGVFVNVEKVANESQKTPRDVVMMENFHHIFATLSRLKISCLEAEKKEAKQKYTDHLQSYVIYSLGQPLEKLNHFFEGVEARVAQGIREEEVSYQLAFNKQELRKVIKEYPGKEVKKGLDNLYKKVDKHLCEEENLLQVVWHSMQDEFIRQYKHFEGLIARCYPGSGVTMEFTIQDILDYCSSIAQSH", "T3 sequence (Q96KP1 whole entry partner, the tested form may be a part)": "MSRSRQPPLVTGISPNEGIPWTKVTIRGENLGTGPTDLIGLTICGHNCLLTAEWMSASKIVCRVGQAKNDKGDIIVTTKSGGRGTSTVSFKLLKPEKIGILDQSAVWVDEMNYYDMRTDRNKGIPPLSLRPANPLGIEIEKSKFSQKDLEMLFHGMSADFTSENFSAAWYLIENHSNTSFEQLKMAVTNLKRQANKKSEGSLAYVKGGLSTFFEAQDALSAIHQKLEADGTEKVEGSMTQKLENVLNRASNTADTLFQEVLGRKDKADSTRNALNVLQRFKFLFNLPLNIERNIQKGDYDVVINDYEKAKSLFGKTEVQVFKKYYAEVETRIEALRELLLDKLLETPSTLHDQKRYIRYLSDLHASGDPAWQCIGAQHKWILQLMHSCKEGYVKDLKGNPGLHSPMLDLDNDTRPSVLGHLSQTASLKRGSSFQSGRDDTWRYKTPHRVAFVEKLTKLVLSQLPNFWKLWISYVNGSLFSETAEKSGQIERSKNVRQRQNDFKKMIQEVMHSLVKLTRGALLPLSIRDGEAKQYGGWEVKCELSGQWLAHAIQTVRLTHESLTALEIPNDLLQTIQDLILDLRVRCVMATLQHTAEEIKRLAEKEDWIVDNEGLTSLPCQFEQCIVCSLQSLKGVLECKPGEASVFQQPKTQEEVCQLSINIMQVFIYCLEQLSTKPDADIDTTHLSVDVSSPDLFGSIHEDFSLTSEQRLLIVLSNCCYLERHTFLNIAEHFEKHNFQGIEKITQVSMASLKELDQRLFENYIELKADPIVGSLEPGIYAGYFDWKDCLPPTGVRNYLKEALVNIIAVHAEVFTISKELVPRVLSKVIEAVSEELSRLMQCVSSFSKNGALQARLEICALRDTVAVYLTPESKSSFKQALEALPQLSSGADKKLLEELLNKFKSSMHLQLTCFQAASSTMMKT", "T3 sequence (O60645 whole entry partner, the tested form may be a part)": "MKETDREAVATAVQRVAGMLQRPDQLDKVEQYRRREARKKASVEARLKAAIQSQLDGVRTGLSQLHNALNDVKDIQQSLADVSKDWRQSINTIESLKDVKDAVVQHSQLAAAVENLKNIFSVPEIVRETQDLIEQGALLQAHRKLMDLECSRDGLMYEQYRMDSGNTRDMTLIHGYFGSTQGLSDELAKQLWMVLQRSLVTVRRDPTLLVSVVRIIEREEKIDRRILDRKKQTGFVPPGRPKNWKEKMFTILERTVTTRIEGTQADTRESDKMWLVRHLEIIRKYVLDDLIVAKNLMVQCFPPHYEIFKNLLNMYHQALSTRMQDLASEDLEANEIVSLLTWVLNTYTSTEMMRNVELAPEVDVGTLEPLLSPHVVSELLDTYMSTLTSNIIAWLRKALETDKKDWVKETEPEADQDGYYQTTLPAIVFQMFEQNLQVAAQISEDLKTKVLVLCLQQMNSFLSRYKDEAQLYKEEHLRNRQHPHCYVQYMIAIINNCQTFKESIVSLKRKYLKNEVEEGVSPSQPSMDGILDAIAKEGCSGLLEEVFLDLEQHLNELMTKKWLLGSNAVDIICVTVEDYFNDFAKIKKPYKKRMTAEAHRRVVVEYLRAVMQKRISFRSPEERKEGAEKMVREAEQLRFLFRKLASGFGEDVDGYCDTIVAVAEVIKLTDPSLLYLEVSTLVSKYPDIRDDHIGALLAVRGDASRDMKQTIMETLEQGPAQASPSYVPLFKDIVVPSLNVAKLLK", "T3 sequence (Q96A65 2-974 partner)": "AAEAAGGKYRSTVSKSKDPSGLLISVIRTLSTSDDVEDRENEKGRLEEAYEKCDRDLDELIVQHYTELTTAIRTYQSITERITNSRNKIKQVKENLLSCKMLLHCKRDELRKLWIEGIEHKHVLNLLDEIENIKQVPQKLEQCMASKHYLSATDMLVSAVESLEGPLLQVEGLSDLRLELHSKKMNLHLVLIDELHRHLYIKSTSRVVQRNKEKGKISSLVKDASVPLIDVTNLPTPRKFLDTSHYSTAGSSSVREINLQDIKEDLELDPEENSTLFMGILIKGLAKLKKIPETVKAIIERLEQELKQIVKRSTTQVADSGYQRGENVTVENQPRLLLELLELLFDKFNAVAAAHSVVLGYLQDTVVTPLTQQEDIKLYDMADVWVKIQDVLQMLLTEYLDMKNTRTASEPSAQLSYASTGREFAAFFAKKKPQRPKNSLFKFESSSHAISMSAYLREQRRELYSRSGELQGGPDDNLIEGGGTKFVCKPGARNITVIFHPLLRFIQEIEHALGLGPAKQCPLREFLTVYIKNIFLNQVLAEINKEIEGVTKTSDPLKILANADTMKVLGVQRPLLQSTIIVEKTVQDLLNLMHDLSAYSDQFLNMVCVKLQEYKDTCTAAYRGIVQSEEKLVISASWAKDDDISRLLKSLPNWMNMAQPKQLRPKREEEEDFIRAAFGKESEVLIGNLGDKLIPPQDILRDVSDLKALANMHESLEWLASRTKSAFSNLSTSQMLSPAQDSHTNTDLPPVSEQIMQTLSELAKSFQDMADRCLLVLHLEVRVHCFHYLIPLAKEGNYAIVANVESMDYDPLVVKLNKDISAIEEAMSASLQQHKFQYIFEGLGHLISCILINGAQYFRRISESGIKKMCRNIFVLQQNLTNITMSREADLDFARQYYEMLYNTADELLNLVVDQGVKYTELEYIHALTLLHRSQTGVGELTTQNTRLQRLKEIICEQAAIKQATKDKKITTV"}}}
{"smiles": "CCCCCCCCCCCCCCCC(=O)OC[C@H](COP(=O)(O)O[C@@H]1[C@H](O)[C@H](O)[C@@H](OP(=O)(O)O)[C@H](OP(=O)(O)O)[C@H]1O)OC(=O)CCCCCCCCCCCCCCC", "note": "[PI(4,5)P2]", "values": [{"measurement": "Kd", "setting": "exocyst holocomplex", "value": 99.4, "unit": "nM"}, {"measurement": "Kd", "setting": "[1]", "value": 38.5, "unit": "nM"}, {"measurement": "Kd", "setting": "[2]", "value": 36.1, "unit": "nM"}]}
